Measurements published in article PMC10536189 (Microorganisms, 2023).
Where two headings read alike, the source gives them in different places.

Tested on: M. tuberculosis
Assay type: cell-based, Mycobacterium tuberculosis (laboratory strain H37Rv)
Conditions: for Time to Positivity (Days.Hours) Experiment 2a / Time to Positivity (Days.Hours) Experiment 2b: diluted inoculum; for Time to Positivity (Days.Hours) Experiment 2a: technical repeat 2a, TB control (no peptide) 15.01; for Time to Positivity (Days.Hours) Experiment 2b: technical repeat 2b, TB control (no peptide) 15.20; for Time to Positivity (Days.Hours) Experiment 1a / Time to Positivity (Days.Hours) Experiment 1b: less diluted inoculum; for Time to Positivity (Days.Hours) Experiment 1a: technical repeat 1a, TB control (no peptide) 7.02; for Time to Positivity (Days.Hours) Experiment 1b: technical repeat 1b, TB control (no peptide) 7.01; for Average % Faster than Control: negative = slower
[1] = peptide 10 µg/mL, overall average of the averages of experiments 1a/1b and 2a/2b
[2] = crude peptide 10 µg/mL, average of experiments 1 and 2
[3] = crude peptide 10 µg/mL, MGIT, independent experiment 1, Control (TB only) 11.10, inoculum emulsified through G25 needle
[4] = crude peptide 10 µg/mL, MGIT, independent experiment 2, Control (TB only) 9.10, inoculum emulsified through G25 needle

Substance | Effect on TTP of MTB in words (peptide 10 µg/mL, MGIT) | Time to Positivity (Days.Hours) Experiment 2a (peptide 10 µg/mL, MGIT) [Days.Hours] | Time to Positivity (Days.Hours) Experiment 2b (peptide 10 µg/mL, MGIT) [Days.Hours] | Time to Positivity (Days.Hours) Experiment 1a (peptide 10 µg/mL, MGIT) [Days.Hours] | Time to Positivity (Days.Hours) Experiment 1b (peptide 10 µg/mL, MGIT) [Days.Hours] | Average % Faster than Control [1] [%] | Time to Positivity (Day.Hours) Experiment 1 [Day.Hours] | Time to Positivity (Day.Hours) Experiment 2 [Day.Hours] | Average % Faster than Control [2] [%] | Time to Positivity (Day.Hours) Experiment 1 [3] [Day.Hours] | Time to Positivity (Day.Hours) Experiment 2 [4] [Day.Hours]
12: peptide from the authors' library (RRRIKIRWY) [Peptide 12] | strong hormetic response | 14.08 | 14.22 | 6.14 | 5.20 | 10.2 |  |  |  |  | 
Eumenitin/Wasp: naturally occurring peptide, APD3, wasp (LNLKGIFKKVASLLT) |  |  |  |  |  |  | 11.00 | 8.08 | 7.6 |  | 
HFLGTLVNLAKKIL [Temporin-1DRa/Frog, naturally occurring peptide, APD3, frog] |  |  |  |  |  |  |  |  | 8.5 | 10.18 | 8.09
FLPLIGRVLSGIL [Temporin A/Frog, naturally occurring peptide, APD3, frog] |  |  |  |  |  |  |  |  | 3.7 | 11.02 | 9.00
76: peptide from the authors' library (VRWRIRVAVIRA) [Peptide 76] |  | 16.08 | 16.14 | 6.13 | 6.16 | −1.4 |  |  |  |  | 
ILPFLAGLFSKIL [Pelophylaxin-4/Frog] |  |  |  |  |  |  | 11.05 | 8.18 | 4.5 |  | 
GAILPLALGALKNLIK [Hylin a1/Frog] |  |  |  |  |  |  | 11.14 | 8.02 | 6.3 |  | 
5: peptide from the authors' library; same sequence as P8/Designed * (FFIYVWRRR) [Peptide 5] |  | 14.06 | 14.16 | 5.21 | 6.08 | 8.8 |  |  |  |  | 
SLLSLIRKLIT [Decoralin/Wasp] |  |  |  |  |  |  | 11.12 | 8.04 | 6.3 |  | 
29: peptide from the authors' library (RWRWWWRVY) [Peptide 29] |  | 15.12 | 15.01 | 6.13 | 6.00 | 4.9 |  |  |  |  | 
Bombolitin V/Bee: naturally occurring peptide, APD3, bee (INVLGILGLLGKALSHL) |  |  |  |  |  |  | 10.22 | 8.13 | 6.8 |  | 
GFKRIVQRIKDFLRNLV [GF-17/Human *] |  |  |  |  |  |  | 10.02 | 8.07 | 11.8 |  | 
KRRWRIWLV [P9/Designed] |  |  |  |  |  |  | 11.10 | 8.14 | 4.4 |  | 
FIITGLVRGLTKLF [Temporin-LTb/Frog] |  |  |  |  |  |  | 11.07 | 8.06 | 6.7 |  | 
FFPFLLGALGSLLPKIF [Temporin-SN1/Frog] |  |  |  |  |  |  | 10.22 | 8.23 | 4.6 |  | 
FLSIIAKVLGSLF [Temporin 1Vb/Frog] |  |  |  |  |  |  | 11.10 | 8.08 | 5.8 |  | 
LLGDFFRKSKEKIGKEFKRIVQRIKDFLRNLVPRTES [Peptide 78, reference compound] | lower TTP | 14.15 | 15.00 | 6.08 | 6.09 | 5.8 |  |  |  |  | 

Substance | Effect on TTP of MTB in words (peptide 10 µg/mL, MGIT) | Time to Positivity (Days.Hours) Experiment 2a (peptide 10 µg/mL, MGIT) [Days.Hours] | Time to Positivity (Days.Hours) Experiment 2b (peptide 10 µg/mL, MGIT) [Days.Hours] | Time to Positivity (Days.Hours) Experiment 1a (peptide 10 µg/mL, MGIT) [Days.Hours] | Time to Positivity (Days.Hours) Experiment 1b (peptide 10 µg/mL, MGIT) [Days.Hours] | Average % Faster than Control [1] [%] | Time to Positivity (Day.Hours) Experiment 1 [Day.Hours] | Time to Positivity (Day.Hours) Experiment 2 [Day.Hours] | Average % Faster than Control [2] [%] | Time to Positivity (Day.Hours) Experiment 1 [3] [Day.Hours] | Time to Positivity (Day.Hours) Experiment 2 [4] [Day.Hours]
67: peptide from the authors' library (RLWRIVVIRVAR) [Peptide 67] |  | 16.00 | 16.05 | 6.19 | 6.11 | −0.4 |  |  |  |  | 
66: peptide from the authors' library (RRARIVVIRVAR) [Peptide 66] |  | 17.06 | 17.16 | 6.05 | 6.16 | −3.5 |  |  |  |  | 
ILPWKWPWWPWRR [Indolicidin/Cow] |  |  |  |  |  |  | 11.03 | 8.18 | 4.8 |  | 
WGKLFKLGLHGIGLLH [NRC-15/Fish *] |  |  |  |  |  |  | 10.21 | 8.07 | 8.3 |  | 
20: peptide from the authors' library (KWKWWWRKI) [Peptide 20] |  | 14.01 | 14.16 | 6.11 | 6.00 | 8.3 |  |  |  |  | 
59: peptide from the authors' library (ILKWKRKWWKWRR) [Peptide 59] |  | 13.19 | 12.22 | 5.17 | 5.22 | 14.5 |  |  |  |  | 
CM15/Bee venom: peptide from APD3, bee venom (KWKLFKKIGAVLKVL) |  |  |  |  |  |  | 10.19 | 8.01 | 10.0 |  | 
RGGRLCYCRRRFCVCV [Protegrin 1/Pig *] |  |  |  |  |  |  | 10.23 | 6.22 | 15.3 |  | 
GFGMALKLLKKVL [Macropin 1/Wasp] |  |  |  |  |  |  | 10.12 | 8.07 | 10.0 |  | 
63: peptide from the authors' library; same sequence as Indolicidin/Cow (ILPWKWPWWPWRR) [Peptide 63] | delayed TTP | 17.01 | 17.10 | 6.22 | 6.22 | −5.5 |  |  |  |  | 
77: peptide from the authors' library (VRLRIRVAVIRA) [Peptide 77] |  | 14.22 | 15.03 | 6.14 | 6.04 | 5.0 |  |  |  |  | 
FLPLLASLFSRLF [Temporin-1Oc/Frog, naturally occurring peptide, APD3, frog] |  |  |  |  |  |  |  |  | 3.8 | 11.10 | 8.17
FFHHIFRGIVHVGKTI [Piscidin 1/Fish *, fragment of naturally occurring peptide, APD3, fish] |  |  |  |  |  |  |  |  | 7.8 | 10.18 | 8.12
9: peptide from the authors' library; same sequence as P9/Designed (KRRWRIWLV) [Peptide 9] |  | 15.08 | 14.21 | 6.07 | 6.04 | 5.8 |  |  |  |  | 
LVPLFLSKLICFITKKC [Brevinin 1Tb/Frog] |  |  |  |  |  |  | 11.10 | 8.15 | 4.2 |  | 
3: peptide from the authors' library (WKWRVRVTI) [Peptide 3] |  | 14.22 | 15.02 | 6.08 | 6.17 | 4.0 |  |  |  |  | 
71: peptide from the authors' library (RLWRIVVIRVKR) [Peptide 71] |  | 14.01 | 14.02 | 6.04 | 6.06 | 9.4 |  |  |  |  | 
